Assay results: PMC12543186, “Discovery of C-12 dithiocarbamate andrographolide analogue as a novel antioxidant and α-glucosidase inhibitors: In vitro and in silico studies” (PLOS One, 2025)
Where two headings read alike, the source gives them in different places.

Experiments:
[1] = biological target: T1, α-glucosidase from Saccharomyces cerevisiae (Saccharomyces cerevisiae, UniProt P38158); experiment: α-glucosidase inhibition activity (p-NPG substrate); assay type: biochemical; details: for α-glucosidase inhibition (%), Mean: 2000 μM
Description: An in vitro α-glucosidase inhibitory assay is commonly used to evaluate the inhibitory effects of various compounds on the enzyme α-glucosidase, which is involved in carbohydrate digestion. Inhibiting this enzyme results in slower glucose absorption, which can be beneficial for managing postprandial blood sugar levels in diabetic conditions. This assay was modified from the methods described by Yusuf et al.. The procedure involved mixing 25 μL of the sample, 150 μL of phosphate buffer saline (PBS) pH 7.4, and 75 μL of 10 mM p-NPG. The mixture was incubated at 37 °C for 10 min. Next, 50 μL of α-glucosidase enzyme from Saccharomyces cerevisiae at a concentration of 0.1 U/mL was added, then incubated at 37 °C for 10 min. To terminate the reaction, […] of 0.1 M sodium carbonate (Na2CO3) was added to the mixture. The absorbance was measured using a microplate reader. The percentage of α-glucosidase inhibition was calculated as follows:
α−glucosidase inhibition(%)=(1–{A−B/C−D})×100
Where A was the absorbance of the sample with α-glucosidase enzyme, B was the absorbance of the sample, C was the absorbance of vehicle with α-glucosidase enzyme, and D was the absorbance of the vehicle (blank).

[2] = DPPH radical scavenging activity; details: 500 μM
Description: The DPPH radical scavenging activity was conducted to thoroughly evaluate the antioxidant potential of andrographolide and its analogues. We modified the assay employing the Sekhon-Loodu and Rupasinghe methods. A DPPH solution was prepared in absolute ethanol, with a concentration of 200 μM. Next, 100 μL of DPPH solution was mixed with 100 μL of the sample in a 96-well plate. The mixture was then incubated for 30 minutes at room temperature. Following incubation, we measured the absorbance at 517 nm using a microplate reader. We tested the antioxidant properties of the compounds at a concentration of 500 μM to detect the weak-to-moderate antioxidants while addressing solubility limitations and minimizing assay artefacts, consistent with previous research. The DPPH radical scavenging activity was precisely expressed as a percentage of DPPH inhibition (% DPPH Inhibition). We selected candidates based on their higher inhibitory activity and prepared various concentrations of these candidates for testing. α-tocopherol, also known as vitamin E, was employed as a positive control. The % DPPH Inhibition was calculated as follows:
%DPPH Inhibition=(1–{A/B})×100
Where A was the absorbance of the DPPH with sample, and B was the absorbance of the DPPH with vehicle (blank).

[3] = Ferric reducing antioxidant power (FRAP) activity; details: 500 μM; third replicate column
Description: The FRAP activity assay was performed to assess the reducing power ability to reduce ferric ions (Fe^3+) to ferrous ions (Fe^2+), following the established method described by Sekhon-Loodu and Rupasinghe. The FRAP reagent was freshly prepared by combining 300 mM acetate buffer pH 3.6, 10 mM 2,4,6- Tri(2-pyridyl)-s-triazine (TPTZ) dissolved in 40 mM HCl, and 20 mM FeCl3 in a ratio of 10:1:1. Ferrous sulfate (FeSO4) was used as a standard, with ascorbic acid serving as a control. The assay was conducted in a 96-well plate by mixing 20 μL of the sample, standard, or positive control with 80 μL of the FRAP solution. The mixture was then incubated for 20 minutes at room temperature, after which we measured absorbance at 595 nm using a microplate reader. The results were expressed as FRAP value, reported as ascorbic acid equivalent in μM (AAE, μM), providing a definitive measure of reducing power.

[4] = biological target: T1, α-glucosidase from Saccharomyces cerevisiae; experiment: Surface plasmon resonance, steady-state affinity; assay type: binding; details: SPR steady-state affinity model, 25 °C, immobilized yeast α-glucosidase; read-out: dissociation constant (KD)
Description: All experiments were conducted using a Biacore X100 instrument at 25 °C with a running buffer of 1X PBS-P+ (10 mM phosphate buffer pH 7.4, 2.7 mM KCl, 137 mM NaCl, 0.05% Tween 20) supplemented with 5% DMSO. Compounds were initially dissolved in DMSO to a final concentration of 14 mM. The stock solution was then diluted to 700 μM in 1.05X PBS-P+ to prepare a compound solution containing 1X PBS-P+ with 5% DMSO. This compound solution was utilized to prepare the required concentrations for injections into the Biacore system. α-glucosidase from Saccharomyces cerevisiae was immobilized onto a CM5 chip following standard amine coupling procedures: the CM5 chip, containing channel 1 and 2, was activated with an injection of NHS/EDC mixture with a contact time of 540 s at a flow rate of 10 µL/min. This was followed by multiple injections of α-glucosidase dissolved in 10 mM sodium acetate pH 4.0 (50 µg/mL) onto channel 2, also with a contact time of 540 s at a flow rate of 10 µL/min. Both channels were inactivated by an injection of 1M ethanolamine at a flow rate of 10 µL/min for 540 s. An immobilization level of 3300 RU of α-glucosidase was achieved.
Multi-cycle affinity studies were conducted with a 100 s association phase and a 60 s dissociation phase, using a flow rate of 30 µL/min. Compounds were injected onto the chip at increasing concentrations of 7, 21, 70, 210, and 490 μM. Binding measurements were taken after reference subtraction of channel 1 (no immobilized α-glucosidase) and after subtracting the results from a blank injection with zero analyte concentration. All data evaluation was performed with Biacore X100 evaluation software (version 2.0).

[5] = read-out: α-glucosidase inhibition (%), Mean, 31.2 μM
[6] = read-out: α-glucosidase inhibition (%), Mean, 62.5 μM
[7] = read-out: α-glucosidase inhibition (%), Mean, 125 μM
[8] = read-out: α-glucosidase inhibition (%), Mean, 250 μM
[9] = read-out: α-glucosidase inhibition (%), Mean, 500 μM
[10] = read-out: α-glucosidase inhibition (%), Mean, 1000 μM
[11] = read-out: α-glucosidase inhibition (%), Mean, 2000 μM
[12] = read-out: α-glucosidase inhibition (%), replicate 1, 31.2 μM, first replicate column
[13] = read-out: α-glucosidase inhibition (%), replicate 1, 62.5 μM, first replicate column
[14] = read-out: α-glucosidase inhibition (%), replicate 1, 125 μM, first replicate column
[15] = read-out: α-glucosidase inhibition (%), replicate 1, 250 μM, first replicate column
[16] = read-out: α-glucosidase inhibition (%), replicate 1, 500 μM, first replicate column
[17] = read-out: α-glucosidase inhibition (%), replicate 1, 1000 μM, first replicate column
[18] = read-out: α-glucosidase inhibition (%), replicate 1, 2000 μM, first replicate column
[19] = read-out: α-glucosidase inhibition (%), replicate 2, 31.2 μM, second replicate column
[20] = read-out: α-glucosidase inhibition (%), replicate 2, 62.5 μM, second replicate column
[21] = read-out: α-glucosidase inhibition (%), replicate 2, 125 μM, second replicate column
[22] = read-out: α-glucosidase inhibition (%), replicate 2, 250 μM, second replicate column
[23] = read-out: α-glucosidase inhibition (%), replicate 2, 500 μM, second replicate column
[24] = read-out: α-glucosidase inhibition (%), replicate 2, 1000 μM, second replicate column
[25] = read-out: α-glucosidase inhibition (%), replicate 2, 2000 μM, second replicate column
[26] = read-out: α-glucosidase inhibition (%), replicate 3, 31.2 μM, third replicate column
[27] = read-out: α-glucosidase inhibition (%), replicate 3, 62.5 μM, third replicate column
[28] = read-out: α-glucosidase inhibition (%), replicate 3, 125 μM, third replicate column
[29] = read-out: α-glucosidase inhibition (%), replicate 3, 250 μM, third replicate column
[30] = read-out: α-glucosidase inhibition (%), replicate 3, 500 μM, third replicate column
[31] = read-out: α-glucosidase inhibition (%), replicate 3, 1000 μM, third replicate column
[32] = read-out: α-glucosidase inhibition (%), replicate 3, 2000 μM, third replicate column

T1 sequence (P38158 whole entry): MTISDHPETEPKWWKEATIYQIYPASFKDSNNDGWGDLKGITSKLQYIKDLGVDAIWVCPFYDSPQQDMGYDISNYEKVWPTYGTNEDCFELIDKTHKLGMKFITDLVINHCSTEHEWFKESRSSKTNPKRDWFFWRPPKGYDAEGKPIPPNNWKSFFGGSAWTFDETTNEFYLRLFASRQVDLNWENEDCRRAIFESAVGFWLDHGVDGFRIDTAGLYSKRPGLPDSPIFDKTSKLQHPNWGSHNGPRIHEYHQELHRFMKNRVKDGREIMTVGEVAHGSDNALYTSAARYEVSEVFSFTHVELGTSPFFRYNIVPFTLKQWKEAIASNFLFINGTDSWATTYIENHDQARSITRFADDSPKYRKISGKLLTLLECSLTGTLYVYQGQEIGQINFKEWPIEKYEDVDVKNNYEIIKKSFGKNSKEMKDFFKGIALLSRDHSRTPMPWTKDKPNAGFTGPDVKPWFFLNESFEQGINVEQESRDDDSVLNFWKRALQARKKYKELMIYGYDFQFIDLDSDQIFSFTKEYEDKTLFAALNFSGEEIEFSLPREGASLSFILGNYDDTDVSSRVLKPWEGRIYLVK

Row | Compound | α-glucosidase inhibition (%), Mean [1] | inhibition at 31.2 µM [1, 5] | inhibition at 62.5 µM [1, 6] | inhibition at 125 µM [1, 7] | inhibition at 250 µM [1, 8] | inhibition at 500 µM [1, 9] | inhibition at 1000 µM [1, 10] | inhibition at 2000 µM [1, 11] | inhibition at 31.2 µM [1, 12] | inhibition at 62.5 µM [1, 13] | inhibition at 125 µM [1, 14] | inhibition at 250 µM [1, 15] | inhibition at 500 µM [1, 16] | inhibition at 1000 µM [1, 17] | inhibition at 2000 µM [1, 18] | inhibition at 31.2 µM [1, 19] | inhibition at 62.5 µM [1, 20] | inhibition at 125 µM [1, 21] | inhibition at 250 µM [1, 22] | inhibition at 500 µM [1, 23] | also measured
1 | C[C@H]1O[C@H](O[C@H]2[C@H](O)[C@@H](O)[C@@H](O[C@H]3[C@H](O)[C@@H](O)C(O)O[C@@H]3CO)O[C@@H]2CO)[C@H](O)[C@@H](O)[C@@H]1N[C@H]1C=C(CO)[C@@H](O)[C@H](O)[C@H]1O (some centres unmarked) [Acarbose, acarbose] | 38.3925% | 6.67% | 3.73% | 7.12% | 10.6% | 31.1% | 35.9% | 38.4% | 5.58% | 3.74% | 6.97% | 10.5% | 31.2% | 36% | 37.5% | 5.89% | 3.63% | 7.34% | 10.7% | 31.1% | inhibition at 1000 µM [1, 24]: 36.7%; inhibition at 2000 µM [1, 25]: 39.4%; inhibition at 31.2 µM [1, 26]: 8.54%; inhibition at 62.5 µM [1, 27]: 3.82%; inhibition at 125 µM [1, 28]: 7.06%; inhibition at 250 µM [1, 29]: 10.5%; inhibition at 500 µM [1, 30]: 31.1%; inhibition at 1000 µM [1, 31]: 34.8%; inhibition at 2000 µM [1, 32]: 38.3%
2 | C=C1CC[C@@H]2[C@](C)(CO)[C@H](O)CC[C@@]2(C)[C@@H]1C/C=C1/C(=O)OC[C@H]1O [Andrographolide] | 21.1432% | 0.0652% | -0.749% | 4.88% | 1.93% | 11.9% | 13.6% | 21.1% | -0.3% | 2.19% | 6.76% | -2.97% | 13.1% | 17.1% | 22.5% | 1.47% | 3.06% | 3.19% | 3.6% | 12% | % Inhibition (DPPH), replicate 1 ([2]; first replicate column): 17.9296%; % DPPH Inhibition, Mean ([2]; mean of n = 3): 14.4808%; % Inhibition (DPPH), replicate 2 ([2]; second replicate column): 11.6610%; % Inhibition (DPPH), replicate 3 ([2]; third replicate column): 13.8517%; FRAP, Ascorbic acid equivalent, replicate 3 [3]: -2.0327 AAE, μM; Kd [4]: 137 ± 85.1 µM; IC50 ([1]; concentration range up to 2000 μM, read-out: IC50 (α-glucosidase inhibitory activity)): > 2000 µM; inhibition at 1000 µM [1, 24]: 13.5%; inhibition at 2000 µM [1, 25]: 21%; inhibition at 31.2 µM [1, 26]: -0.976%; inhibition at 62.5 µM [1, 27]: -7.49%; inhibition at 125 µM [1, 28]: 5.68%; inhibition at 250 µM [1, 29]: 5.16%; inhibition at 500 µM [1, 30]: 10.6%; inhibition at 1000 µM [1, 31]: 11%; inhibition at 2000 µM [1, 32]: 19.9%
